This is an account of results in paper PMC5889410, “Design and Biological Evaluation of Antifouling Dihydrostilbene Oxime Hybrids” (Marine Biotechnology (New York, N.y.), 2018).

In brackets after ≈: the same amount, converted by molar mass.

Data set [1] concerns Cylindrotheca closterium. The data set is described as follows: Microalgal adhesion assay (chlorophyll a). The class given is cell-based. The following applies: 120 h, 5 days incubation, 10–0.01 μg/mL tested, read-out: MIC against the adhesion (A) of microalgae, C. closterium.
In data set [2] the test system is Porphyridium purpureum. As to the kind of experiment: Microalgal adhesion assay (chlorophyll a). It is filed as cell-based. As to conditions: 120 h, 5 days incubation, 10–0.01 μg/mL tested, read-out: MIC against the adhesion (A) of microalgae, P. purpureum.
Data set [3] has as its system Pleurochrysis roscoffensis. As to the kind of experiment: Microalgal adhesion assay (chlorophyll a). It is filed as cell-based. As to conditions: Chrysotila roscoffensis, 120 h, 5 days incubation, 10–0.01 μg/mL tested, read-out: MIC against the adhesion (A) of microalgae, P. roscoffensis.
In a further data set the test system is Roseobacter litoralis. The data set is described as follows: Bacterial growth assay (OD 630 nm). The class given is cell-based. The following applies: 48 h incubation, 10–0.01 μg/mL tested, read-out: MIC against the growth of marine bacteria, R.l. A digest of the protocol:
(§1)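 Adhesion is scored after 48 h at 26 °C with compound (10–0.01 μg/mL): wells are emptied, rinsed, air-dried, stained with 0.3% crystal violet and read at 595 nm. Growth of the same cultures (2 × 10^8 CFU/mL start) is followed at 630 nm.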

For a further data set, the system named is Vibrio carchariae. The data set is described as follows: Bacterial growth assay (OD 630 nm). It is filed as cell-based. As to conditions: Vibrio harveyi, 48 h incubation, 10–0.01 μg/mL tested, read-out: MIC against the growth of marine bacteria, V.c. A digest of the protocol: as §1
The test system of another data set is Vibrio harveyi. As to the kind of experiment: Bacterial growth assay (OD 630 nm). As to conditions: 48 h incubation, 10–0.01 μg/mL tested, read-out: MIC against the growth of marine bacteria, V.h. It is filed as cell-based. A digest of the protocol: as §1
The next data set relates to Shewanella putrefaciens. As to the kind of experiment: Bacterial growth assay (OD 630 nm). The following applies: 48 h incubation, 10–0.01 μg/mL tested, read-out: MIC against the growth of marine bacteria, S.p. It is filed as cell-based. A digest of the protocol: as §1
For a further data set, the system named is Vibrio aestuarianus. As to the kind of experiment: Bacterial growth assay (OD 630 nm). The following applies: 48 h incubation, 10–0.01 μg/mL tested, read-out: MIC against the growth of marine bacteria, V.a. The class given is cell-based. A digest of the protocol:
as §1

Data set [4] relates to Pseudoalteromonas elyakovii. The data set is described as follows: Bacterial growth assay (OD 630 nm). It is filed as cell-based. The following applies: 48 h incubation, 10–0.01 μg/mL tested, read-out: MIC against the growth of marine bacteria, P.e. A digest of the protocol:
as §1

For another data set, the system named is Vibrio natriegens. As to the kind of experiment: Bacterial growth assay (OD 630 nm). The following applies: 48 h incubation, 10–0.01 μg/mL tested, read-out: MIC against the growth of marine bacteria, V.n. The class given is cell-based. An outline of the steps: as §1
The subject of a further data set is Halomonas aquamarina. The data set is described as follows: Bacterial growth assay (OD 630 nm). The class given is cell-based. The following applies: Vreelandella aquamarina, 48 h incubation, 10–0.01 μg/mL tested, read-out: MIC against the growth of marine bacteria, H.a. A digest of the protocol:
as §1

The subject of a further data set is Vibrio proteolyticus. As to the kind of experiment: Bacterial growth assay (OD 630 nm). The class given is cell-based. The following applies: 48 h incubation, 10–0.01 μg/mL tested, read-out: MIC against the growth of marine bacteria, V.p. An outline of the steps:
as §1

Data set [5] relates to Balanus improvisus cyprid larvae. As to the kind of experiment: whole plant or invertebrate. The class given is in vivo. A digest of the protocol:
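Freshly molted cyprids (18–22 per dish) exposed in filtered seawater to 0.1–10 μg/mL compound (0.1% DMSO controls) for 5 days at 20–25 °C. Settled, swimming and dead larvae counted by microscope; IC50 is the concentration preventing 50% settlement, n = 4, determined only for compounds inhibiting >50% at 5 μg/mL.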

A further data set has as its system marine bacteria. The data set is described as follows: Bacterial adhesion assay, whole panel of ten strains. The class given is cell-based, 10 marine bacterial strains. The following applies: tested up to 10 μg/mL, active = MIC of 10 μg/mL or below. A digest of the protocol:
as §1

Data set [6] concerns Cylindrotheca closterium. As to the kind of experiment: Microalgal growth assay (chlorophyll a). The following applies: 120 h, 5 days incubation, 10–0.01 μg/mL tested, read-out: MIC against the growth (G) of microalgae, C. closterium. It is filed as cell-based.
In another data set the test system is Halamphora coffeaeformis. As to the kind of experiment: Microalgal growth assay (chlorophyll a). The class given is cell-based. As to conditions: Halamphora coffeiformis, 120 h, 5 days incubation, 10–0.01 μg/mL tested, read-out: MIC against the growth (G) of microalgae, H. coffeaformis.
The subject of data set [7] is Porphyridium purpureum. The data set is described as follows: Microalgal growth assay (chlorophyll a). The class given is cell-based. The following applies: 120 h, 5 days incubation, 10–0.01 μg/mL tested, read-out: MIC against the growth (G) of microalgae, P. purpureum.
Data set [8] relates to Pleurochrysis roscoffensis. As to the kind of experiment: Microalgal growth assay (chlorophyll a). It is filed as cell-based. As to conditions: Chrysotila roscoffensis, 120 h, 5 days incubation, 10–0.01 μg/mL tested, read-out: MIC against the growth (G) of microalgae, P. roscoffensis.

In the case of `COc1ccc(CC(=NO)c2ccc(O)c(OC)c2)cc1` [Compound 11, 1-(3-methoxy-4-hydroxyphenyl)-1-hydroxyimino-2-(4’-methoxyphenyl)-ethane], the minimum inhibitory concentration (MIC) (in the data set with Cylindrotheca closterium [1]; in the data set on Porphyridium purpureum [2]; in [3]; in the data set on Roseobacter litoralis; in the data set on Vibrio carchariae; with Vibrio harveyi) was above 10 µg/mL in each case. The minimum inhibitory concentration (MIC) in the data set on Shewanella putrefaciens is above 10 µg/mL; with Vibrio aestuarianus, above 10 µg/mL; in [4], above 10 µg/mL; in the data set on Vibrio natriegens, above 10 µg/mL; with Halomonas aquamarina, 10 µg/mL (≈ 34.8 µM); in the data set with Vibrio proteolyticus, above 10 µg/mL. Further, the MIC in the data set on Cylindrotheca closterium [6] was 10 µg/mL (≈ 34.8 µM); with Halamphora coffeaeformis, above 10 µg/mL; with Porphyridium purpureum [7], 10 µg/mL (≈ 34.8 µM); in data set [8] it was 10 µg/mL (≈ 34.8 µM). The IC50 in [5] (Amphibalanus improvisus, 120 h, read-out: IC50 (cyprid settlement inhibition)) was above 5 µg/mL. Further, the “inhibition of cyprid settlement in the initial screen” value in data set [5] (B. improvisus, at 5.0 μg/mL) was “inactive”. Further, the “Toxicity (%) (dead cyprids)” value in data set [5] (Balanus improvisus, in vivo, 5 days, 5 μg/mL) is given as 5.3%. The “MIC / activity against the adhesion of all bacteria tested” value with marine bacteria is “^aCompounds 7, 8, 10, 11, and 12 were inactive against the adhesion of all bacteria tested up to 10 μg/mL”.

As a reminder, the MIC is the smallest concentration in the dilution series that meets the test's criterion for growth inhibition. By IC50 is commonly meant the concentration needed to halve the response being measured.
